Experimental data reported in patent publication US10301292B2, “Bicyclic compound” (Takeda Pharmaceutical Company Limited, priority 2014, dated 2019).

Legend:
[1] = target: T1, human ACC1 (Homo sapiens, UniProt Q13085); test: Measurement of ACC1 inhibitory activity (Malonyl-CoA production, RapidFire-mass spectrometry); assay type: biochemical; conditions: 10 μM of the test compound; recombinant human ACC1; read-out: ACC1 inhibitory rate (%) at 10 μM
T1 construct: His tag (from vector pFAST-BacHTc; protein captured on Ni-NTA) (N); made in house; host or cells: SF-9 insect cells, recombinant baculovirus BAC-ACC1
Procedure: (1) Cloning of Human ACC1 Gene and Preparation of Recombinant Baculovirus
Human ACC1 gene was cloned by PCR using a human liver cDNA library (Clontech) as a template and Primer 1 and Primer 2 shown below. Primer 1 and Primer 2 were prepared by adding SalI, NotI restriction enzyme recognition sequences based on the information of the base sequence of human ACC1 gene (Genbank Accession U19822).
PCR was performed using Pyrobest DNA polymerase (TAKARA BIO INC.). The obtained PCR product was cloned to pT7 Blue vector (Novagen) and after confirmation of the base sequence, digested with restriction enzymes SalI and XbaI. The obtained DNA fragment was inserted into pFAST-BacHTc (Invitrogen) digested with restriction enzymes SalI and XbaI to give expression plasmid ACC1/pFAST-BacHTc.
Using the expression plasmid ACC1/pFAST-BacHTc and BAC-TO-BAC Baculovirus Expression System (Invitrogen), virus stock BAC-ACC1 of recombinant Baculovirus was prepared.
(2) Preparation of ACC1 Protein
SF-9 cells (Invitrogen) were inoculated to a medium (10 L) for insect cells (Sf-900IISFM medium (Invitrogen) containing 5% fetal bovine serum (Trace), 50 mg/L Gentamicin (Wako Pure Chemical Industries, Ltd.), 0.1% Pluronic F-68 (Invitrogen)) at 1.0×10^6 cells/mL, and cultured with shaking in Wave Bioreactor (GE Healthcare) at 27° C., 20 rpm, rocking angle 10°, oxygen concentration 30%.
On day 2 of the culture, recombinant Baculovirus BAC-ACC1 was added, and the cells were cultured for 3 days. The culture medium was centrifuged at 4000×g for 10 min to give virus-infected cells. The cells were washed with phosphate buffered saline (Invitrogen) and centrifuged under the same conditions. The obtained cells were cryopreserved at −80° C.
The cryopreserved cells were thawed in ice and suspended in 800 mL of 25 mM HEPES buffer (pH 7.5) containing 10% Glycerol, 0.3 M NaCl, 1 mM EDTA, 25 mM Sodium β-Glycerophosphate and 1 mM Sodium Orthovanadate, and supplemented with Complete Protease Inhibitor (Roche). The obtained suspension was homogenized two times in a polytron homogenizer (Kinematica) at 20,000 rpm for 20 sec. The obtained cell disruption solution was clarified by centrifugation at 186,000×g for 60 min and the supernatant was passed through Ni-NTA Superflow Cartridges (5 mL) (QUIAGEN). Furthermore, it was washed with 25 mM HEPES buffer (pH 7.5) containing 20 mM Imidazole, 0.3 M NaCl, and eluted with 25 mM HEPES buffer (pH 7.5) containing 250 mM Imidazol, 0.3 M NaCl. The eluate was concentrated by Amicon Ultra-15 (Nihon Millipore K.K.) having a fraction molecular weight of 50K. The obtained concentrate was subjected to gel filtration with 50 mM HEPES buffer (pH 7.5) containing 10 mM MgCl2, 2 mM dithiothreitol, 10 mM tripotassium citrate, 0.3 M NaCl by using HiLoad 26/60 Superdex200 prep grade gel filtration column (GE Healthcare) to give ACC1. The obtained ACC1 was cryopreserved at −80° C.
(3) Measurement of ACC1 Inhibitory Activity
ACC1 obtained in the above-mentioned (2) was diluted with an enzyme reaction buffer (50 mM HEPES (pH 7.5), 10 mM MgCl2, 10 mM Tripottasium Citrate, 2 mM Dithiothreitol, 0.001% Fatty acid free BSA) to a concentration of 0.2 μg/ml, and the mixture was added to each well of a 384 well assay plate by 10 μl. A test compound dissolved in dimethyl sulfoxide (DMSO) was diluted with an enzyme reaction buffer and the resulting solution (5 μl) was added to each well. The mixture was incubated at room temperature for 60 min. Then, a substrate solution (50 mM KHCO3, 200 μM ATP, 200 μM Acetyl-CoA, 5 μl) was added to each well, and the mixture was reacted at room temperature for 30 min. The reaction was quenched by adding a reaction quenching liquid (1.3% formic acid, 0.2 μM Malonyl-^13C3-CoA) by 60 μL each to the obtained reaction mixtures (test compound addition group).
In addition, a reaction was performed in the same manner as above and without adding the test compound (test compound non-addition group). […]

[2] = test system: HCT116 cells; test: Growth inhibitory activity on HCT116 cell (CellTiter-Glo); assay type: cell-based; conditions: Homo sapiens, HCT-116, 72 h, table head: 10 μM (text b2498: 1 μM), 3 days incubation, read-out: HCT116 cell proliferation inhibitory rate (%) at 10 μM
Procedure: The growth inhibitory activity of the compound on HCT116 cell was evaluated by the following method.
HCT116 cells were seeded in a 384 well blackplate at 900 cells/30 μL/well, and maintained in an RPMI medium (Wako)) containing an assay medium (2% fetal bovine serum, 50 Unit/mL penicillin, 50 μg/mL streptomycin (Invitrogen). The next day, a test compound dissolved in dimethyl sulfoxide (DMSO) was diluted with the assay medium, and the obtained compound solution was added by 10 μL to each well of a plate containing HCT116 cells and incubated at 37° C., 5% CO2 (test compound addition group).
A similar reaction was performed without adding a test compound (test compound non-addition group).
Furthermore, a similar reaction was performed under the conditions without adding HCT116 cell and a test compound (control group).
After 3 days, 20 μL of a CellTiter-Glo reagent (Promega KK) was added to the well, and the mixture was stirred for 10 min. Thereafter, the luminescence value of each well was measured by the EnVision™ multilabel counter (Perkin Elmer Inc.).
The HCT116 cell proliferation inhibitory rate (%) of the test compound was determined by the following calculation formula. (1−(luminescence of test compound addition group−luminescence of control group)÷(luminescence of test compound nonaddition group−luminescence of control group))×100

SMILES	inhibition at 10 µM [1]	inhibition at 10 µM [2]
CC(=O)NC(C)c1ccc2nc(-c3ccc(Oc4cccc(OCC5CC5)c4)cc3)oc2n1 (stereo not drawn) [Example 104, N-(1-(2-(4-(3-(cyclopropylmethoxy)phenoxy)phenyl)[1,3]oxazolo[5,4-b]pyridin-5-yl)ethyl)acetamide]	98%	30%
CCCCn1cc(Oc2ccc(-c3nc4ccc(C(C)NC(C)=O)cc4o3)cn2)ccc1=O (stereo not drawn) [Example 105, N-(1-(2-(6-((1-butyl-6-oxo-1,6-dihydropyridin-3-yl)oxy)pyridin-3-yl)-1,3-benzoxazol-6-yl)ethyl)acetamide]	96%	46%
CC(NC(N)=O)c1ccc2nc(-c3ccc(Oc4cncc(OCC5CC5)c4)nc3)oc2c1 (stereo not drawn) [Example 106, 1-(1-(2-(6-((5-(cyclopropylmethoxy)pyridin-3-yl)oxy)pyridin-3-yl)-1,3-benzoxazol-6-yl)ethyl)urea]	103%	33%
CC(NC(N)=O)c1ccc2nc(-c3ccc(Oc4cccc(OCC(C)(F)F)c4)nc3)oc2c1 (stereo not drawn) [Example 107, 1-(1-(2-(6-(3-(2,2-difluoropropoxy)phenoxy)pyridin-3-yl)-1,3-benzoxazol-6-yl)ethyl)urea]	97%	32%
CC(NC(N)=O)c1ccc2nc(-c3ccc(Oc4cccc(OCC5CC5)c4)nc3)oc2c1F (stereo not drawn) [Example 108, 1-(1-(2-(6-(3-(cyclopropylmethoxy)phenoxy)pyridin-3-yl)-7-fluoro-1,3-benzoxazol-6-yl)ethyl)urea]	100%	36%
CC(NC(N)=O)c1ccc2nc(-c3cnc(Oc4cccc(OCC5CC5)c4)cn3)oc2c1 (stereo not drawn) [Example 109, 1-(1-(2-(5-(3-(cyclopropylmethoxy)phenoxy)pyrazin-2-yl)-1,3-benzoxazol-6-yl)ethyl)urea]	97%	27%
